From patent US4322420A, “Method of using 4-anilinoquinazoline derivatives as analgesic and anti-inflammatory agents” (Sankyo Company Limited, priority 1978, dated 1982) come the findings set out here.

The test system of test [1] is carrageenin-induced oedema of the right hind paw. Nature of the test: Test for anti-inflammatory activity (carrageenin-induced paw oedema, oral administration). The conditions noted are these: Rattus norvegicus, read-out: ID50 Anti-inflammatory Activity. The class given is in vivo, Male Wistar-Imamichi rats. How it is done:
Male Wistar-Imamichi rats, each weighing approximately 150 g, were used in these experiments and were divided into groups, each containing 5 animals. Each of the test compounds listed in Table 1 was administered orally, at various doses, to the rats and then, 30 minutes after oral administration,0.05 ml of a 1% w/v carrageenin suspension was subcutaneously injected into the sole of the right hind paw to induce oedema. The volume of the paw was measured both before and 3 hours after injection of the carrageenin by the method of Winder et al [Arch. Int. Pharmacodyn. […] The difference between the volume of the paw before and after injection was defined as the oedema intensity.
(§1) For both of the above tests, the ID50 was calculated by the method of Litchfield and Wilcoxon [J. Pharmacol. Exptl. Therap.

Test [2] has as its system bradykinin-induced nociceptive stimulus. Nature of the test: Test for analgesic activity (bradykinin-induced nociceptive stimulus, oral administration). The class given is in vivo, female Hartley guinea pigs. The conditions noted are these: Cavia porcellus, read-out: ID50 Analgesic Activity. The procedure: This test employs a bradykinin-induced nociceptive stimulus and is a partially modified version of the test described by Deffenu [J. Pharm. Pharmac. […] The test animals were female Hartley guinea pigs having a body weight of from 350 g to 400 g. The guinea pigs were divided into groups, each group containing from 5 to 10 animals. The test animals were cannulated into the carotid artery retrogradely under the anesthesia induced by intraperitoneal injection of 20 mg/kg of pentobarbital. The guinea pigs were allowed to recover from the anesthesia for at least 3 hours before the tests commenced.
The test compounds listed in the following Table 1 were administered orally. Immediately before administration of each test compound and then 15, 30, 60, 90 and 120 minutes after administration, each guinea pig was administered with 0.5 μg of bradykinin through the cannula. Turning of the head or twisting of the front legs upon injection was taken as a sign of nociceptive response. The test compounds were administered at various doses and the inhibition rate was determined accordingly.
as §1

[3] abbreviates: per os, rats, 0.05 ml of 1% w/v carrageenin 30 min after dosing, paw volume 3 hours after injection, Litchfield and Wilcoxon.
[4] abbreviates: per os, guinea pigs, 0.5 μg bradykinin via carotid cannula before and 15, 30, 60, 90 and 120 min after dosing, Litchfield and Wilcoxon.

SMILES strings stand for the structures. Read-outs that look alike come from different tables or passages of the source.

Take `CC(=O)Oc1ccccc1C(=O)O` [Aspirin, reference compound]: the figures for the ED50 in test [1] and in test [2] were 145 mg/kg and 280 mg/kg, respectively.

As to `Clc1ccc2c(Nc3ccccc3)ncnc2c1` [Compound 5, 4-Anilino-7-chloroquinazoline], the ED50 is 28 mg/kg in test [1] (setting [3]) and 25 mg/kg in test [2] (setting [4]).

Turning to `FC(F)(F)c1ccc2c(Nc3ccccc3)ncnc2c1` [Compound 17, 4-Anilino-7-trifluoromethylquinazoline], the ED50 in test [1] (setting [3]) came to 20 mg/kg; in test [2] (setting [4]), 16.5 mg/kg.

Regarding `CN(c1ccccc1)c1ncnc2cc(Cl)ccc12` [Compound 55, 7-Chloro-4-(N-methylanilino)quinazoline], the ED50 was determined as 36 mg/kg in test [1] (setting [3]) and 50 mg/kg in test [2] (setting [4]).

Turning to `CN(c1ccccc1)c1ncnc2cc(C(F)(F)F)ccc12` [Compound 73, 4-(N-Methylanilino)-7-trifluoromethylquinazoline], the results for the ED50 in test [1] (setting [3]) and in test [2] (setting [4]) were 15.5 mg/kg and 31 mg/kg, respectively.

As to `Cc1cccc(Nc2ccccc2C(=O)O)c1C` [Mefenamic acid, reference compound], the ED50 was determined as 50 mg/kg in test [1] (setting [3]) and 72 mg/kg in test [2] (setting [4]).
